IC50 data for 20 molecules are collected here from US20250223259A1, “PROTEASE INHIBITORS FOR TREATING OR PREVENTING CORONAVIRUS INFECTION” (Merck Sharp & Dohme LLC, priority 2022, published 2025).

pIC50: −log10 of the molar value.

The target of this assay is SARS2 coronavirus 3CL protease (Severe acute respiratory syndrome coronavirus 2 (2019-nCoV) (SARS-CoV-2), UniProt P0DTD1). In words: SARS2 Coronavirus 3CL Protease Assay (FRET). It is filed as biochemical. As to conditions: SARS2 3CLPro FRET assay; 5 nM enzyme, 30 min pre-incubation with compound, 15 uM peptide substrate, 4 h room temperature.

Method: The enzymatic activity of SARS2 coronavirus 3CL protease was determined in a FRET (fluorescence resonance energy transfer)-based assay measuring the cleavage of a peptide substrate by recombinantly expressed and purified enzyme. Cleavage of the peptide SEQ ID NO:1 (CPC Scientific) by SARS2 3CL protease was measured in reaction buffer (50 mM Hepes pH 7.5, 0.01% Triton X-100, 0.01% BSA, 2 mM DTT). SARS2 3CL protease (5 nM final concentration) was pre-incubated with compound for 30 minutes before reaction initiation with peptide substrate (15 uM final concentration). Room temperature reactions (4 h) were quenched by addition of a high dose of inhibitor and read on an appropriate plate reader (excitation wavelength=495 nm, emission wavelength=520 nm). Data were analyzed by a standard 4 parameter fit to determine IC50 values.

As to `COC(=O)N[C@H](C(=O)N1CC(C2CCC2)C[C@H]1C(=O)N[C@@H](CCC(C)(F)F)C(=O)C(=O)NC1CC1)C(C)(C)C` (single isomer, unassigned) [Example 1, Methyl ((S)-1-((2S,4(S or R))-4-cyclobutyl-2-(((S)-1-(cyclopropylamino)-6,6-difluoro-1,2-dioxoheptan-3-yl)carbamoyl)pyrrolidin-1-yl)-3,3-dimethyl-1-oxobutan-2-yl)carbamate], the pIC50 (in general, the negative decadic logarithm of the IC50, by convention in mol/L) was 7.55.
To `COC(=O)N[C@H](C(=O)N1CC(C23CC(C2)C3)C[C@H]1C(=O)N[C@@H](CCC(C)(F)F)C(=O)C(=O)NC1CC1)C(C)(C)C` (single isomer, unassigned) [Example 2, Methyl ((S)-1-((2S,4(R or S))-4-(bicyclo[1.1.1]pentan-1-yl)-2-(((S)-1-(cyclopropylamino)-6,6-difluoro-1,2-dioxoheptan-3-yl)carbamoyl)pyrrolidin-1-yl)-3,3-dimethyl-1-oxobutan-2-yl)carbamate] belongs 7.54; to `COC(=O)N[C@H](C(=O)N1CC(C2CCCC2)C[C@H]1C(=O)N[C@@H](CCC(C)(F)F)C(=O)C(=O)NC1CC1)C(C)(C)C` (single isomer, unassigned) [Example 3, Methyl ((S)-1-((2S,4(R or S))-4-cyclopentyl-2-(((S)-1-(cyclopropylamino)-6,6-difluoro-1,2-dioxoheptan-3-yl)carbamoyl)pyrrolidin-1-yl)-3,3-dimethyl-1-oxobutan-2-yl)carbamate], 7.24; to `COCC(NC(=O)OC)C(=O)N1CC2(CCCCC2)C[C@H]1C(=O)N[C@@H](CCC(C)(F)F)C(=O)C(=O)NC1CC1` (single isomer, unassigned) [Example 11, Methyl ((R or S)-1-((S)-3-(((S)-1-(cyclopropylamino)-6,6-difluoro-1,2-dioxoheptan-3-yl)carbamoyl)-2-azaspiro[4.5]decan-2-yl)-3-methoxy-1-oxopropan-2-yl)carbamate], 7.40.
To `COC(=O)N[C@H](C(=O)N1CCC(C2CC2)C1C(=O)N[C@@H](CCC(C)(F)F)C(=O)C(=O)NC1CC1)C(C)(C)C` (single isomer, unassigned) [Example 23, Methyl ((S)-1-((2(S or R),3(R or S))-3-cyclopropyl-2-(((S)-1-(cyclopropylamino)-6,6-difluoro-1,2-dioxoheptan-3-yl)carbamoyl)pyrrolidin-1-yl)-3,3-dimethyl-1-oxobutan-2-yl)carbamate] belongs 8.00; to `COC(=O)N[C@H](C(=O)N1CC2(CCOCC2)CC1C(=O)N[C@@H](CCC(C)(F)F)C(=O)C(=O)NC1CC1)C(C)(C)C` (single isomer, unassigned) [Example 28, Methyl ((S)-1-((R or S)-(3-(((S)-1-(cyclopropylamino)-6,6-difluoro-1,2-dioxoheptan-3-yl)carbamoyl)-8-oxa-2-azaspiro[4.5]decan-2-yl)-3,3-dimethyl-1-oxobutan-2-yl)carbamate], 6.53.
In the case of `COC(=O)N[C@H](C(=O)N1CC(C)CCC1C(=O)N[C@@H](CCC(C)(F)F)C(=O)C(=O)NC1CC1)C(C)(C)C` (single isomer, unassigned) [Example 30, Methyl ((S)-1-(2(R or S), 5(R or S)-(((S)-1-(cyclopropylamino)-6,6-difluoro-1,2-dioxoheptan-3-yl)carbamoyl)-5-methylpiperidin-1-yl)-3,3-dimethyl-1-oxobutan-2-yl)carbamate] it was 7.40; in that of `COC(=O)N[C@H](C(=O)N1CC2(C[C@H]1C(=O)N[C@@H](CCC(C)(F)F)C(=O)C(=O)NC1CC1)CC2(F)F)C(C)(C)C` (single isomer, unassigned) [Example 32, Methyl ((S)-1-((3(R or S),6S)-6-(((S)-1-(cyclopropylamino)-6,6-difluoro-1,2-dioxoheptan-3-yl)carbamoyl)-1,1-difluoro-5-azaspiro[2.4]heptan-5-yl)-3,3-dimethyl-1-oxobutan-2-yl)carbamate], 7.82; in that of `COC(=O)N[C@H](C(=O)N1CCC2(CCCC2)CC1C(=O)N[C@@H](CCC(C)(F)F)C(=O)C(=O)NC1CC1)C(C)(C)C` (single isomer, unassigned) [Example 34, Methyl ((S)-1-(R or S)-(7-(((S)-1-(cyclopropylamino)-6,6-difluoro-1,2-dioxoheptan-3-yl)carbamoyl)-8-azaspiro[4.5]decan-8-yl)-3,3-dimethyl-1-oxobutan-2-yl)carbamateazaspiro[4.5]decan-8-yl)-3,3-dimethyl-1-oxobutan-2-yl)carbamate], 8.13.
`COC(=O)N[C@H](C(=O)N1CCC(C)(C)CC1C(=O)N[C@@H](CCC(C)(F)F)C(=O)C(=O)NC1CC1)C(C)(C)C` (single isomer, unassigned) [Example 37, Methyl ((S)-1-((R or S)-(2-(((S)-1-(cyclopropylamino)-6,6-difluoro-1,2-dioxoheptan-3-yl)carbamoyl)-4,4-dimethylpiperidin-1-yl)-3,3-dimethyl-1-oxobutan-2-yl)carbamate]: the pIC50 is 8.04.
As for `COC(=O)N[C@H](C(=O)N1CCC2(CCC2)CC1C(=O)N[C@@H](CCC(C)(F)F)C(=O)C(=O)NC1CC1)C(C)(C)C` (single isomer, unassigned) [Example 41, Methyl ((S)-1-((R or S)-(6-(((S)-1-(cyclopropylamino)-6,6-difluoro-1,2-dioxoheptan-3-yl)carbamoyl)-7-azaspiro[3.5]nonan-7-yl)-3,3-dimethyl-1-oxobutan-2-yl)carbamate], the pIC50 is 7.89.
With `COC(=O)N[C@H](C(=O)N1CC2CCC2C1C(=O)N[C@@H](CCC(C)(F)F)C(=O)C(=O)NC1CC1)C(C)(C)C` (single isomer, unassigned) [Example 43, Methyl ((S)-1-((1(R or S), 2(R or S),5(R or S))-(2-(((S)-1-(cyclopropylamino)-6,6-difluoro-1,2-dioxoheptan-3-yl)carbamoyl)-3-azabicyclo[3.2.0]heptan-3-yl)-3,3-dimethyl-1-oxobutan-2-yl)carbamate], the pIC50 is 7.66.
To `CNC(=O)C(=O)[C@H](CCC(C)(F)F)NC(=O)C1CC2(CCC2)CN1C(=O)[C@@H](NC(=O)OC)C(C)(C)C` (single isomer, unassigned) [Example 44, Methyl ((S)-1-((R or S)-7-(((S)-6,6-difluoro-1-(methylamino)-1,2-dioxoheptan-3-yl)carbamoyl)-6-azaspiro[3.4]octan-6-yl)-3,3-dimethyl-1-oxobutan-2-yl)carbamate] belongs 7.57; to `COC(=O)N[C@H](C(=O)N1CCC(F)(F)CC1C(=O)N[C@@H](CCC(C)(F)F)C(=O)C(=O)NC1CC1)C(C)(C)C` (single isomer, unassigned) [Example 45, Methyl ((S)-1-(R or S)-(2-(((S)-1-(cyclopropylamino)-6,6-difluoro-1,2-dioxoheptan-3-yl)carbamoyl)-4,4-difluoropiperidin-1-yl)-3,3-dimethyl-1-oxobutan-2-yl)carbamate], 7.47.
In the case of `COC(=O)N[C@H](C(=O)N1CC2(CCC2)CC1C(=O)N[C@@H](CCC(C)(F)F)C(=O)C(=O)NC1CC1)C(C)(C)C` (single isomer, unassigned) [Example 47, Methyl ((S)-1-(R or S)-7-(((S)-1-(cyclopropylamino)-6,6-difluoro-1,2-dioxoheptan-3-yl)carbamoyl)-6-azaspiro[3.4]octan-6-yl)-3,3-dimethyl-1-oxobutan-2-yl)carbamate] it was 7.42; in that of `COC(=O)N[C@H](C(=O)N1CCCC(C)C1C(=O)N[C@@H](CCC(C)(F)F)C(=O)C(=O)NC1CC1)C(C)(C)C` (single isomer, unassigned) [Example 49, Methyl ((S)-1-((2(R or S),3(R or S))-2-(((S)-1-(cyclopropylamino)-6,6-difluoro-1,2-dioxoheptan-3-yl)carbamoyl)-3-methylpiperidin-1-yl)-3,3-dimethyl-1-oxobutan-2-yl)carbamate], 7.22.
In the case of `COC(=O)N[C@H](C(=O)N1CCC(C)C1C(=O)N[C@@H](CCC(C)(F)F)C(=O)C(=O)NC1CC1)C(C)(C)C` (single isomer, unassigned) [Example 51, Methyl ((S)-1-((2(R or S),3(R or S))-2-(((S)-1-(cyclopropylamino)-6,6-difluoro-1,2-dioxoheptan-3-yl)carbamoyl)-3-methylpyrrolidin-1-yl)-3,3-dimethyl-1-oxobutan-2-yl)carbamate], the pIC50 was 7.01.
To `COC(=O)N[C@H](C(=O)N1CC(C)(C)CCC1C(=O)N[C@@H](CCC(C)(F)F)C(=O)C(=O)NC1CC1)C(C)(C)C` (single isomer, unassigned) [Example 52, Methyl ((S)-1-(R or S)-2-(((S)-1-(cyclopropylamino)-6,6-difluoro-1,2-dioxoheptan-3-yl)carbamoyl)-5,5-dimethylpiperidin-1-yl)-3,3-dimethyl-1-oxobutan-2-yl)carbamate] belongs 6.84; to `COC(=O)N[C@H](C(=O)N1CC(C2CCOC2)C[C@H]1C(=O)N[C@@H](CCC(C)(F)F)C(=O)C(=O)NC1CC1)C(C)(C)C` (single isomer, unassigned) [Example 54, Methyl ((S)-1-((2S,4(R or S))-2-(((S)-1-(cyclopropylamino)-6,6-difluoro-1,2-dioxoheptan-3-yl)carbamoyl)-4-((R or S)-tetrahydrofuran-3-yl)pyrrolidin-1-yl)-3,3-dimethyl-1-oxobutan-2-yl)carbamate], 6.70; to `COC(=O)N[C@H](C(=O)N1CCCCC1C(=O)N[C@@H](CCC(C)(F)F)C(=O)C(=O)NC1CC1)C(C)(C)C` (single isomer, unassigned) [Example 55, Methyl ((S)-1-((S or R)-2-(((S)-1-(cyclopropylamino)-6,6-difluoro-1,2-dioxoheptan-3-yl)carbamoyl)piperidin-1-yl)-3,3-dimethyl-1-oxobutan-2-yl)carbamate: methyl ((S)-1-((R or S)-2-(((S)-1-(cyclopropylamino)-6,6-difluoro-1,2-dioxoheptan-3-yl)carbamoyl)piperidin-1-yl)-3,3-dimethyl-1-oxobutan-2-yl)carbamate], 6.62.
